Literature values in PMC10669340, “Bioactive Compounds from an Endophytic Pezicula sp. Showing Antagonistic Effects against the Ash Dieback Pathogen” (Biomolecules, 2023).

Key:
Parameters in all cases: method as in PMID 24529574
Conditions in all cases: cited from earlier work
[1] = system: Nocardioides simplex
[2] = system: S. aureus
[3] = system: Mycobacterium diernhoferi
[4] = system: Micrococcus luteus
[5] = system: methicillin-resistant S. aureus (MRSA) strain N315e
[6] = system: Nocardia sp.

Measured: MIC

C/C=C/[C@@H]1C(C)=C[C@@H]2C[C@H](C)CC[C@H]2[C@]1(C)/C(O)=C1\C(=O)N[C@@H]([C@@H](C)O)C1=O [hymenosetin]
≤ 1.0 µg/mL: all assays above
